Assay results from PubChem BioAssay (NCI).
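Values below derive from 48-hour exposures of cells grown in 96-well plates, with endpoints linearly interpolated between the two concentrations bracketing the appropriate inhibition level. GI50 marks 50% less growth. The concentration for full growth arrest is given as TGI.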

Experiments:
Test in all cases: DTP human tumour cell line panel, 48 h
[1] = system: CAKI-1 renal
[2] = system: EKVX NSCLC
[3] = system: NCI-H460 lung
[4] = system: OVCAR-4 ovarian
[5] = system: SF-539 CNS
[6] = system: SK-MEL-5 melanoma
[7] = system: SN12C renal
[8] = system: U251 CNS
[9] = system: NCI/ADR-RES ovarian

SMILES	TGI [1] [µM]	TGI [2] [µM]	TGI [3] [µM]	TGI [4] [µM]	TGI [5] [µM]	TGI [6] [µM]	TGI [7] [µM]	TGI [8] [µM]	GI50 [1] [µM]	GI50 [2] [µM]	GI50 [3] [µM]	GI50 [9] [µM]	TGI [9] [µM]	GI50 [5] [µM]	GI50 [6] [µM]	GI50 [7] [µM]	GI50 [8] [µM]	GI50 [4] [µM]
Cc1ccc(-c2nc(SCC(=O)O)n[nH]2)cc1	> 100	> 100	> 100	> 100	> 100	> 100	> 100	> 100										
O=C(OCc1ccccc1)N1CCN(/[N+]([O-])=N/Oc2ccc([N+](=O)[O-])cc2[N+](=O)[O-])CC1	15.9	35	40.6		7.11	21.1	30.1	27.1	4.8	16.7	9.96	5.25	> 100	2.81	6.43	11.5	4.85	
Cc1ccc(NC(=O)c2cccc([N+](=O)[O-])c2O)c([N+](=O)[O-])c1	> 100	48.4	18.9	27	34.3		53.8	38.9										
CCC[CH2][Sn]([CH2]CCC)([O]C(=O)c1cc(F)cc(F)c1)[O]C(=O)c1cc(F)cc(F)c1		2.55	3.02	3.01	2.89	2.61	2.68	1.85		1.29	1.54			1.52	1.34	1.35	0.615	1.6
COC1(OC)CC2C=C(S(=O)(=O)c3ccccc3)C1N(Cc1ccccc1)C2=O (configuration not stated)		> 100	> 100	> 100	44.9	> 100	68.2	> 100										
CCOC(=O)C(=O)Nc1ccc(C)cc1C	> 100	> 100	> 100	> 100	> 100	> 100	> 100	> 100										
CSC(C1c2ccccc2N(C)C2=NC(=O)N(C)C(=O)C21Cl)S(=O)(=O)c1ccc(C)cc1 (configuration not stated)	48	> 100	> 100	> 100	> 100	> 100	> 100	> 100										
COc1cc2c(cc1OC)-c1cc3cc(OC)c(OC)cc3n1CC2	> 100	> 100	> 100	> 100			> 100	> 100										
Cn1c2c(c3ccccc31)C1CCCCC1C1C(=O)NC(=O)C21 (configuration not stated)		> 100	> 100	> 100	> 100	> 100	> 100	> 100										
COc1ccc(/C(=N/NC(=O)NN)C(c2ccc(OC)cc2)C2(O)CNc3c(Cl)cc(Cl)cc32)cc1 (configuration not stated)		> 100	> 100	> 100	> 100	> 100	> 100	> 100										
Brc1ccc(-c2nnc(-c3nn(-c4ccccc4)c4nc5ccccc5nc34)o2)cc1	> 100	> 100	> 100	> 100	> 100	84.5	> 100	> 100										
COc1ccc(/C=C2\CCCCC2=O)cc1	> 100	> 100	> 100	> 100	> 100	> 100	> 100	> 100										
O=S(O)CCCCCSSCCCCSSCCCCCS(=O)O	> 100	> 100	> 100	> 100	> 100	> 100	> 100	> 100										
CC1C[C@H](OC(N)=O)C(C)CC1=O (some centres not stated)	> 100	> 100	> 100	> 100	> 100	> 100	> 100	> 100										
CCNCC(=O)O[C@]1(CC)C(=O)OCc2c1cc1n(c2=O)Cc2cc3ccccc3nc2-1	4.65	> 100		8.84	0.574	1.27	11.2	6.61					1.39					
CN(C)c1ccc(N=Cc2c([O-])ccc3ccccc23)cc1.[C-]#[O+].[C-]#[O+].[Ir]	40.7	64.6		26.1	40.7	31.2	35.5	30.4	22	24.9				19.9	16.4	19	15.7	12.2
COC1=CC(O)(CC(N)=O)c2ccccc2C1=O (configuration not stated)	> 100	> 100	> 100	> 100		> 100	> 100	> 100										

SMILES	TGI [1] [µM]	TGI [2] [µM]	TGI [3] [µM]	TGI [4] [µM]	TGI [5] [µM]	TGI [6] [µM]	TGI [7] [µM]	TGI [8] [µM]	GI50 [1] [µM]	GI50 [2] [µM]	GI50 [3] [µM]	GI50 [9] [µM]	TGI [9] [µM]	GI50 [5] [µM]	GI50 [6] [µM]	GI50 [7] [µM]	GI50 [8] [µM]	GI50 [4] [µM]
NC(=NCCCOc1ccc(Cl)cc1)Nc1ccc(Cl)cc1	9.11	13.3	7.94	7.9	3.72	3.16	10.9	8.36	2.77	3.87	2.7	3.03	9.92	1.83	1.74	2.75	2.65	2.3
CC(=O)Nc1ccc(Sc2ccc([N+](=O)[O-])o2)cc1	3.06	25.2	8.93	5.1	11	11.4	10.7	11	1.41	4.46	2.83	2.88	11.3	3.13	3.32	2.96	3.06	2.27
CC(=O)N1CC(Nc2ccc(OC(F)(F)F)cc2)=CC1=O	> 100		> 100	> 100	9.01	12.1	> 100	> 100	3.05		0.696	0.781	5.15	1.31	0.377	7.95	3.34	4.84
CC(=O)C1CC=C(C)CC1 (configuration not stated)	> 100	> 100	> 100	> 100	> 100	> 100	> 100	> 100										
CC(=O)c1ccc(NC(=O)CSc2nnc(-c3cc(-c4ccc(C)cc4)nc4ccccc34)o2)cc1		> 100	6.04		3.92	> 100	5.45	3.92		3.13	2.36	3.14	> 100	1.8	3.42	2.15	1.97	
CC/C=C1\N=C(c2ccc(Cl)cc2)OC1=O	> 100	> 100	> 100	> 100	> 100		> 100											
CCn1cc(/C=C/C(C)c2cn(CC)c(=O)[nH]c2=O)c(=O)[nH]c1=O (configuration not stated)	> 100	> 100	> 100	> 100	> 100	> 100	> 100	> 100										
COc1ccc2oc3c4c2c1CCC4CCC3=O (configuration not stated)		> 100	> 100	> 100	> 100	> 100	> 100	> 100										
COc1cc(C(=O)/C=C/c2cc(C(=O)c3cc(OC)c(OC)c(OC)c3)ccc2OC)ccc1N	19.4		7.61	> 100	3.98	2.18	4.92	2.22	0.669		2.13	0.388	2.51	1.53	1.02	1.62	1.02	0.982
CC1=CC(=O)CCC2(C)C1CC[C@@H]2OC=O (some centres not stated)	> 100	> 100	> 100	> 100	> 100	> 100	> 100	> 100										
O=C(CC1(O)C(=O)Nc2ccccc21)c1ccccc1Cl (configuration not stated)	> 100	> 100	> 100	> 100	> 100	> 100	> 100											
CC(C)c1ccccc1NC(=O)C(=O)Cc1nc2ccccc2s1	> 100	> 100	> 100	> 100	> 100	> 100	> 100	> 100										
CCOC(=O)N1CCc2cc(OC)c(OC)c3c2C1CC3=O (configuration not stated)	> 100		> 100	> 100	> 100	> 100	> 100	> 100										
O=C(CO)CC(=O)C(=O)Nc1nc([N+](=O)[O-])cs1	> 100	> 100	> 100	> 100	> 100	> 100	> 100	> 100										
N#CC(C(=O)/C(=N\Nc1nc(=S)[nH]n1N)C(C#N)c1ccc(Cl)cc1)c1ccc(Cl)cc1 (configuration not stated)	> 100	> 100	> 100	> 100	> 100		> 100	> 100										
CC(C)(C)NN=C1C(C)(C)C(=NNC(C)(C)C)C1(C)C	> 100		> 100	> 100	> 100	> 100	> 100	> 100										
